# How the values were obtained:
# recombinant TrxR1/Trx1 = target: T1, recombinant TrxR1/Trx1 (Rattus norvegicus, UniProt O89049); experiment: DTNB reductase activity assay, recombinant TrxR1/Trx1; details: 2-AAPA 10 μM to 200 μM
# T1 sequence (O89049 1-499): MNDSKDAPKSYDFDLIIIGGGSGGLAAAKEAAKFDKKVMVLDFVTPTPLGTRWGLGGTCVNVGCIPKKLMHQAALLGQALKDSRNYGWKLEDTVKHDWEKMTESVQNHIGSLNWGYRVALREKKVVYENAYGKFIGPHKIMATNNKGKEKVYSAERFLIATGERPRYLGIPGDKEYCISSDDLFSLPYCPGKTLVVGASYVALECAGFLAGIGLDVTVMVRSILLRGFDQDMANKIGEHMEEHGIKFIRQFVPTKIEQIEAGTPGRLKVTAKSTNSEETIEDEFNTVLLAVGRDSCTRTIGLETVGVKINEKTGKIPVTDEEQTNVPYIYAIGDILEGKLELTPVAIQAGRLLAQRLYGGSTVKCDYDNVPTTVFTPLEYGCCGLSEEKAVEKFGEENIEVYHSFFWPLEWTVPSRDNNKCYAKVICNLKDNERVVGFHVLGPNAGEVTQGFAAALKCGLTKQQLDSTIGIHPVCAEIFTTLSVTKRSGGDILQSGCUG
# Experimental: This assay allows determination of the total reductase activity in a culture sample, as well as determination of the individual contribution made by thioredoxin reductase and glutathione reductase to the total reductase activity of the sample. In this assay, culture samples (cells+media) from 3 L bioreactors were stored frozen until the end of the run, after which the samples were centrifuged to remove the cell pellet then the resulting supernatant was diluted 20-fold into 100 mM tris buffer, pH 7.4, containing 0.4 mM NADPH, 0.15 mM oxidized glutathione, and 3 mM DTNB with the indicated concentration of specific reductase inhibitor. Addition of the enzyme specific inhibitors to the samples allowed the total reductase activity to be determined as well as the individual activity from the thioredoxin and glutathione systems. Reductase activity was monitored by spectroscopic measurement of the increase in absorbance at a wavelength of 412 nm. […] The detected increase in absorbance at this wavelength is caused by the reduction of DTNB (Arnér, ESJ, Biochim. Biophys. Acta—Gen. Subj., 1790:495-526, 2009).
# Briefly, culture samples were thawed on ice. […] The absorbance at a wavelength of 412 nm was determined every 30 seconds, for 20 minutes.
# Activity of the reductases was calculated as follows. The change in absorbance per minute (Δ412) for each well was determined. […]
# GR/GSSG = target: T2, GR/GSSG (Homo sapiens, UniProt P00390); experiment: DTNB reductase activity assay, recombinant GR/GSSG; type: biochemical; details: 2-AAPA at 100 μM and higher
# T2 construct: purchased Abcam
# T2 sequence (P00390 44-522): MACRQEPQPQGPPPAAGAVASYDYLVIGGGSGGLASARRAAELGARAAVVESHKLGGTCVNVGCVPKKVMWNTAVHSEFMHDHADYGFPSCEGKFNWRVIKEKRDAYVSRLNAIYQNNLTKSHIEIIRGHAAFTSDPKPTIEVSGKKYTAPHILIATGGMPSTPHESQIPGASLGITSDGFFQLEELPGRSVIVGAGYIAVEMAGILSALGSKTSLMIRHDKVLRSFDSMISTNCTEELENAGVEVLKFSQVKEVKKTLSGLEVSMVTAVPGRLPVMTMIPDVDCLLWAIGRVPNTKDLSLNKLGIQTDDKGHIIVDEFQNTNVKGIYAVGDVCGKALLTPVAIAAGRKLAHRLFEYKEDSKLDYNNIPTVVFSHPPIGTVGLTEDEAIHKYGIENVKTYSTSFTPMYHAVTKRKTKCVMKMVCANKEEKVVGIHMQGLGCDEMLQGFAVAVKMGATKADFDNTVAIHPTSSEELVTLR
# Experimental: (§1) Briefly, culture samples were thawed on ice. […] The samples were then allowed to incubate 5 minutes.
# (§2) Activity of the reductases was calculated as follows. […] The activity was then calculated by the following equation: […]
# [1] = system: GR purified from a day 14 culture of cell line B; experiment: DTNB reductase activity of 2'5'-ADP column fractions from cell line B, GR; type: biochemical, Chinese Hamster; details: 100 μM 2-AAPA, fractions B1-C2, depending on the fraction
# Experimental: Reductases were purified from cell samples to verify the specificity of reductase inhibitors. A day 14 culture of mAb B (IgG antibody produced by CHO cell line B CHO-K1SV) was pelleted by centrifugation, washed once with PBS and re-suspended in 50 mM tris buffer, pH 7.5. The solution was homogenized and filtered at 0.2 μm prior to loading onto a column of 2′5′-ADP Sepharose 4B resin. The reductases were eluted using a linearly increasing gradient of 0 to 0.3 mM NADP^+ in the same tris buffer (Yadav, et al., Parasitol. Int., 62:193-198, 2013). The reductase activity of the collected fractions was determined using the assay described in Example 3. Additionally, western blot analysis was used to detect TrxR1 and GR in the collected fractions.
# The reductase-specific inhibitors were evaluated above using purified recombinant mammalian enzymes from rat and human. […] The added activity from the two systems was approximately equal to the total activity detected in the absence of an inhibitor for each fraction. […] That is, if the reductase inhibitors were non-specifically inhibiting both enzymatic systems, the added reductase activity would have been […] than the reductase activity detected without any added inhibitor. […] The fractions with reductase activity were pooled and further evaluated at the inhibitor concentrations assayed in the antibody reduction assay.
# [2] = target: T3, recombinant mammalian GR/GSSG (Homo sapiens, UniProt P00390); experiment: Reduction of purified mAb B by recombinant GR/GSSG, capillary electrophoresis; type: biochemical
# T3 construct: purchased Abcam
# T3 sequence (P00390 44-522): T2 sequence (P00390 44-522)
# Experimental: (§3) Antibody reduction in cell culture supernatant samples was measured by detecting the presence of reduced species via capillary electrophoresis using standard procedures on a 2100 Bioanalyzer system (Agilent Technologies, Santa Clara, Calif.). Samples were diluted 1-6 fold depending on titer and analyzed under non-reducing conditions following 2100 Bioanalyzer standard protocols. Supernatant samples from 3 L bioreactors were stored frozen until all samples had been acquired and were ready for analysis. Samples were thawed on ice and analyzed immediately to evaluate the amount of reduced antibody in the reactor on each day of the run.
# Using the same approach with recombinant mammalian enzymes, the glutathione system was evaluated by spiking mAb B into five solutions containing: 1) no enzyme, 2) 1 mM GSSG (oxidized glutathione), 3) 0.2 μM GR (glutathione reductase), 4) 0.2 μM GR with 1 mM GSSG, and 5) 0.02 μM GR with 1 mM GSSG. […] The results indicated a minimal mAb B reduction in the solutions containing GSSG alone. This is the result of an impurity in the GSSG. […] was reduced in the solutions containing both GR and GSSG.
# (§4) To confirm that the activity from a particular reductase system can translate into reduced antibody, a second method was developed to determine the impact of each reductase system on antibody reduction. The principle of the reduction assay is similar to the reductase activity assay described above. The percent of protein reduction without an inhibitor was compared to the percent of protein reduction in the presence of specific inhibitors for GR or TrxR1. In this assay, purified mAb B was spiked into solutions containing recombinant mammalian TrxR1/Trx1 or recombinant mammalian GR/GSSG and stored in an oxygen-free environment overnight. The percent of reduced mAb B antibody was evaluated using capillary electrophoresis, as set forth above.
# glutathione system = experiment: Reductase activity assay, day 14 culture samples, glutathione system; type: biochemical, Chinese Hamster; details: day 14, 100 μM 2-AAPA
# Experimental: The total reductase activity was determined in the absence of any inhibitor. […] Thus, the difference in activity between a sample with ATG, and a sample without any inhibitor, indicates the amount of reductase activity contributed the thioredoxin system. […] Thus, the difference in reductase activity between a sample with 2-AAPA, and a sample without any inhibitor, indicates the amount of reductase activity contributed by the glutathione system. Although ATG and 2-AAPA are provided as exemplary specific inhibitors, other specific inhibitors discussed above can be employed in this assay instead of ATG and 2-AAPA.
# as §1, §2
# The reductase activities of the thioredoxin and glutathione systems were evaluated in day 14 culture samples of the same CHO cell lines A, B, C, and D, using the previously evaluated specific inhibitors 2-AAPA and ATG at 100 μM and 0.5 μM respectively. Data in FIG. 6A were normalized to viable cell density. Cell lines A, B, and C were described in Example 6, above. Cell line D is the cell line CHO CAT-S, and is stably transfected to produce an IgG1 mAb (mAb D).
# [3] = system: GR isolated from CHO cell culture; experiment: mAb B reduction by pooled CHO fractions with NADPH and GSSG; type: biochemical, Chinese Hamster; details: 3 μM Cu^2+ or 100 μM ATG, overnight room temperature
# Experimental: (§5) Purified mAb B was spiked into several solutions containing different combinations of the pooled fractions (PF), recombinant Trx1, GSSG, NADPH, ATG, and Cu^2+. The solutions were incubated at room temperature overnight and the amount of intact antibody remaining was determined by capillary electrophoresis according to the protocol described above. In the first set of samples, purified mAb B was spiked into the pooled fractions with, and without, NADPH.
# In the second set of samples, purified mAb B was spiked into solutions containing the pooled enzymes, NADPH, GSSG, and either no inhibitor, 3 μM Cu^2+, or 100 μM ATG. […] This solution contained GR, GSSG, and NADPH, which are needed for the glutathione system.
# [4] = system: TrxR1 purified from CHO cell cultures; experiment: mAb B reduction by pooled CHO fractions with NADPH and Trx1; type: biochemical, Chinese Hamster; details: 3 μM Cu^2+ or 100 μM ATG, overnight room temperature
# Experimental: as §5
# The third set of solutions contained the pooled enzymes, NADPH, Trx1, and either no inhibitor, 3 μM Cu^2+, or 100 μM ATG. […] In the final sample as a control, mAb B was spiked into a solution containing NADPH, Trx1, and GSSG.
# [5] = target: T4, recombinant mammalian TrxR1/Trx1 (Rattus norvegicus, UniProt O89049); experiment: Reduction of purified mAb B by recombinant TrxR1/Trx1, capillary electrophoresis; type: biochemical, human (Trx1)
# T4 construct: purchased Cayman Chemical (TrxR1); Abcam (Trx1)
# T4 sequence (O89049 1-499): T1 sequence (O89049 1-499)
# Experimental: as §3
# The role of each enzymatic system in antibody reduction was evaluated by determining the conditions under which these reductase systems cause antibody reduction. Using purified recombinant mammalian reductases, the thioredoxin system was evaluated by spiking purified mAb B into five solutions containing: 1) no enzymes, 2) 1 μM TrxR1, 3) 0.1 μM TrxR1, 4) […], and 5) 0.1 μM TrxR1+2.5 μM Trx1. All samples contained 0.4 mM NADPH and were stored at room temperature overnight. Digital gel-like images were obtained from microchip-based capillary electrophoresis analysis.
# as §4
# [6] = Antibody aggregation analysis (HP-SEC); type: physicochemical; details: EDTA 9.5, 19, 38 mM or Cystine 4 and 8 mM
# Experimental: The percent of antibody aggregates was determined using standard size exclusion chromatography (HP-SEC) methods. An Agilent 1200 series system was used with a Tosoh Bioscience TSKgel G3000SW XL column (Tosoh Bioscience LLC, King of Prussia, Pa.) (7.8 mm×300 mm) at 1 mL/min flow rate using a mobile phase buffer of 0.1 M sodium phosphate, 0.1 M sodium sulfate, pH 6.8. The absorbance chromatography at 280 nm was used to quantify the results.
# [7] = Antibody reduction potential assay (Vacuum/GX); type: physicochemical; details: EDTA 9.5, 19, 38 mM or Cystine 4 and 8 mM
# Experimental: Bioreactor samples (1 mL) were obtained daily and centrifuged at 3000-4000 RPM and the supernatant was frozen immediately at −80° C. On the day prior to the assay, the samples were removed from −80° C. storage, thawed, and placed in a vacuum chamber at room temperature overnight to induce reduction of the monoclonal antibody without the interference of oxygen. After the vacuum hold, the samples were analyzed for protein fragmentation under non-reducing conditions using a BioAnalyzer system (Agilent Technologies) or a LABCHIP® GXII system (PerkinElmer) to detect antibody fragments resulting from the breakage of the antibody's interchain disulfide bonds. […]
# Samples were stored frozen until analyzed. […] After being denatured and the free thiols being capped by NEM, the samples were analyzed using a Perkin Elmer Labchip® GXII (Perkin Elmer, Waltham, Mass.) to perform size fractionation and quantification. Using the Labchip® GXII, the protein and fragments were detected by laser-induced fluorescence and translated into gel-like images (bands) and electropherograms (peaks).
# Reduction potential, i.e. the potential of the molecule to be reduced under anaerobic condition, was measured by subjecting samples to vacuum analysis as described above followed addition of non-reducing sample buffer. […]
smiles,measurement,setting,value
"CC(=O)NC(CSC(=S)Nc1ccc(NC(=S)SCC(NC(C)=O)C(=O)O)cc1)C(=O)O (stereo not shown) [2-AAPA, 2-Acetylamino-3-[4-(2-acetylamino-2-carboxyethylsulfanylthiocarbonyl-amino)phenylthiocarbamoylsulfanyl]propionic acid]",effect on the reductase activity of TrxR1/Trx1 solutions,recombinant TrxR1/Trx1,minimal effect
same,GR/GSSG activity,GR/GSSG,completely inhibiting
same,"share of reductase activity from glutathione reductase, determined with the inhibitor",[1],25-40%
same,behaviour of 2-AAPA in the antibody reduction assay,[2]; same method as for ATG,directly caused antibody reduction
same,share of total reductase activity caused by the glutathione system,glutathione system; cell line A,70%
same,share of total reductase activity caused by the glutathione system,glutathione system; cell line B,45%
same,share of total reductase activity caused by the glutathione system,glutathione system; cell line C,5%
same,share of total reductase activity caused by the glutathione system,glutathione system; cell line D,45%
"O=S(=O)([O-])[O-].[Cu+2] [Cu^2+, copper (II) sulfate]",antibody reduction caused by GR/GSSG,[2]; 3 μM Cu^2+,almost completely inhibited
same,antibody reduction in samples containing GR/GSSG,[2]; Cu^2+ 3-100 μM,prevented antibody reduction
same,"antibody reduction in pooled enzymes, NADPH, GSSG",[3],completely inhibited all antibody reduction
same,"antibody reduction in pooled enzymes, NADPH, Trx1",[4],marginally prevented antibody reduction
same,intact antibody remaining in the TrxR1/Trx1 sample,[5]; 3 μM Cu^2+,20%
same,antibody reduction from the thioredoxin system,[5]; Cu^2+ 3-100 μM,only partially inhibited
"O=C(O)CN(CCN(CC(=O)O)CC(=O)O)CC(=O)O [EDTA, ethylenediamine tetraacetic acid]",aggregation of sheared mAb E material after 8 days at 2-8° C.,[6],limited the extent of mAb aggregation
same,reduction potential at the time of harvest of sheared mAb E material,[7],no reduction potential
